Several values for one entry are separate records, joined by “and”; a condition that tells them apart may be missing. Equal entries are not always repeated. Some results are limits rather than exact numbers.

For assay [1], the target named is T1, Substance-K receptor (Cavia porcellus, UniProt Q64077).
T1 sequence (Q64077 whole entry): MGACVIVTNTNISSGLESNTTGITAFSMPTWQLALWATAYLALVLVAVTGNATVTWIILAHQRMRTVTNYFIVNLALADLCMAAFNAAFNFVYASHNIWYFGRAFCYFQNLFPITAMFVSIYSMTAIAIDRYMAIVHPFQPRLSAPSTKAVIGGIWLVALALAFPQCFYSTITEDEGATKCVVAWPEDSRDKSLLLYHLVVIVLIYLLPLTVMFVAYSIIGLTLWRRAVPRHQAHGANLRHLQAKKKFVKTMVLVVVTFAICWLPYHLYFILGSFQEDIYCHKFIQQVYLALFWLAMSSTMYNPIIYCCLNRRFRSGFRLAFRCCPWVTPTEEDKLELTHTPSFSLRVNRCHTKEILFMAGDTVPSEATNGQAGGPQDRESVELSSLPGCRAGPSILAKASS

Assay [2] concerns the target T2, Substance-K receptor (Rattus norvegicus, UniProt P16610).
T2 sequence (P16610 whole entry): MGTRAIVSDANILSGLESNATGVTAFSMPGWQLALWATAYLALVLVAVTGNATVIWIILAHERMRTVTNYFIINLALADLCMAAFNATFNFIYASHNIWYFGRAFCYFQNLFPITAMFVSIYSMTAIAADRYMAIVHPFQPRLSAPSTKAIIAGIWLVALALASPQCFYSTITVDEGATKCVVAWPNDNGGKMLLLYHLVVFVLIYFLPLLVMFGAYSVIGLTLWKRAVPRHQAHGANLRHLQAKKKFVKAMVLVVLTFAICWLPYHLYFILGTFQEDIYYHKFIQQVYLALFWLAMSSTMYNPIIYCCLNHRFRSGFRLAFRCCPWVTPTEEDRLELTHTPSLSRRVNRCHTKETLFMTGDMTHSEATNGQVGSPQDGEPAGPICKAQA

Take `CC[C@H](NC(=O)c1c(OCC(=O)O)c(-c2ccccc2)nc2ccccc12)c1ccccc1` [N-[(S)-1-Phenylpropyl]-2-phenyl-3-(carboxymethoxy)quinoline-4-carboxamide]: the Ki was > 10 µM in assay [1]; 2.33 µM and 5.25 µM in assay [2].

What is called Ki is the dissociation constant of the complex between target and ligand, obtained from inhibition or displacement. Lower therefore signals higher affinity.
